# Data: patent US6544991B2, “Compositions and methods for treating bacterial infections” (priority 2000, dated 2003)
# Read-outs that look alike come from different tables or passages of the source.
# Experiments:
# Staph. aureus 29213 = experiment: MIC, quality control strain; assay type: cell-based; conditions: Staphylococcus aureus
# Protocol: (§1) Bacterial isolates were obtained from human infections. The isolates were maintained frozen in a liquid nitrogen freezer and plated on Trypticase Soy Agar (TSA) plates supplemented with 5% sheep blood. The quality control strain Staph. aureus 29213 was originally acquired from the American Type Culture Collection (Rockville, Md.).
# (§2) MICs were determined by an agar dilution method or microbroth dilution method recommended by NCCLS. Synergy was assessed by agar dilution checker-board method. Minimal inhibitory concentrations (MICS) for each separate drug were determined. The fractional inhibitory concentration (FIC) values were calculated by the MIC of Drug A (e.g., sulbactam/ampicillin) and Drug B (e.g., linezolid or arbekacin) in combination/MIC of Drug A or B alone. The FIC index was determined according to the following formula: [formula]
# MRSA strains = experiment: MIC by agar dilution or microbroth dilution method (NCCLS); assay type: cell-based, Staph. aureus; conditions: for MIC: Staphylococcus aureus
# Protocol: as §1, §2
# VRSA strains = experiment: MIC by agar dilution or microbroth dilution method (NCCLS), VRSA strains; assay type: cell-based, Staph. aureus; conditions: VRSA strains (n = 10); for MIC: Staphylococcus aureus
# Protocol: as §1, §2
# In total, 48 MRSA strains were tested, including ten VRSA strains isolated from five different countries in the world, 33 MRSA strains isolated from ten Japanese university hospitals, and five MRSA type strains from Juntendo University, Department of Bacteriology, Tokyo, Japan.
structure (smiles),measurement,setting,value
"CC1(C)SC2C(NC(=O)C(N)c3ccccc3)C(=O)N2C1C(=O)O (stereo not drawn) [ABPC, α-aminobenzylpenicillin]",MIC,"Staph. aureus 29213; ATCC29213, strain ATCC 29213, control sample (Ex. 26), read-out: MIC Values",0.5 µg/mL
same,MIC,"Staph. aureus 29213; ATCC29213, strain ATCC29213, control sample (Ex. 37), read-out: MIC Values",0.25 µg/mL
same,MIC,"MRSA strains; MRSA / NCTC 10442, strain NCTC 10442, read-out: MIC Values",< 128 µg/mL
same,MIC,"MRSA strains; MRSA, MRSA strains (n = 38), read-out: MICs 50%",16 µg/mL
same,MIC,"MRSA strains; MRSA, MRSA strains (n = 38), read-out: MICs 90%",64 µg/mL
same,MIC,"MRSA strains; MRSA, strain 85/2082, read-out: MIC Values",32 µg/mL
same,MIC,"MRSA strains; MRSA, strain 99.3700W, read-out: MIC Values",32 µg/mL
same,MIC,"MRSA strains; MRSA, strain 99.3759V, read-out: MIC Values",64 µg/mL
same,MIC,"MRSA strains; MRSA, strain AMC 11094, read-out: MIC Values",16 µg/mL
same,MIC,"MRSA strains; MRSA, strain BM12612(new), read-out: MIC Values",64 µg/mL
same,MIC,"MRSA strains; MRSA, strain H1, read-out: MIC Values",16 µg/mL
same,MIC,"MRSA strains; MRSA, strain HIP 5827, read-out: MIC Values",64 µg/mL
same,MIC,"MRSA strains; MRSA, strain HIP 5836, read-out: MIC Values",16 µg/mL
same,MIC,"MRSA strains; MRSA, strain HIP 6297, read-out: MIC Values",16 µg/mL
same,MIC,"MRSA strains; MRSA, strain HIP 7737, read-out: MIC Values",32 µg/mL
same,MIC,"MRSA strains; MRSA, strain JSCC 340, read-out: MIC Values",64 µg/mL
same,MIC,"MRSA strains; MRSA, strain JSCC 351, read-out: MIC Values",32 µg/mL
same,MIC,"MRSA strains; MRSA, strain JSCC 363, read-out: MIC Values",16 µg/mL
same,MIC,"MRSA strains; MRSA, strain JSCC 381, read-out: MIC Values",32 µg/mL
same,MIC,"MRSA strains; MRSA, strain JSCC 390, read-out: MIC Values",32 µg/mL
same,MIC,"MRSA strains; MRSA, strain JSCC 401, read-out: MIC Values",128 µg/mL
same,MIC,"MRSA strains; MRSA, strain JSCC 413, read-out: MIC Values",16 µg/mL
same,MIC,"MRSA strains; MRSA, strain JSCC 431, read-out: MIC Values",64 µg/mL
same,MIC,"MRSA strains; MRSA, strain JSCC 440, read-out: MIC Values",32 µg/mL
same,MIC,"MRSA strains; MRSA, strain JSCC 451, read-out: MIC Values",16 µg/mL
same,MIC,"MRSA strains; MRSA, strain JSCC 463, read-out: MIC Values",16 µg/mL
same,MIC,"MRSA strains; MRSA, strain JSCC 481, read-out: MIC Values",64 µg/mL
same,MIC,"MRSA strains; MRSA, strain JSCC 490, read-out: MIC Values",64 µg/mL
same,MIC,"MRSA strains; MRSA, strain JSCC 501, read-out: MIC Values",32 µg/mL
same,MIC,"MRSA strains; MRSA, strain JSCC 513, read-out: MIC Values",16 µg/mL
same,MIC,"MRSA strains; MRSA, strain JSCC 531, read-out: MIC Values",32 µg/mL
same,MIC,"MRSA strains; MRSA, strain JSCC 540, read-out: MIC Values",32 µg/mL
same,MIC,"MRSA strains; MRSA, strain JSCC 551, read-out: MIC Values",16 µg/mL
same,MIC,"MRSA strains; MRSA, strain JSCC 563, read-out: MIC Values",1 µg/mL
same,MIC,"MRSA strains; MRSA, strain JSCC 581 (lacks the mecA gene), read-out: MIC Values",0.5 µg/mL
same,MIC,"MRSA strains; MRSA, strain JSCC 590 (lacks the mecA gene), read-out: MIC Values",0.5 µg/mL
same,MIC,"MRSA strains; MRSA, strain JSCC 601, read-out: MIC Values",16 µg/mL
same,MIC,"MRSA strains; MRSA, strain JSCC 640, read-out: MIC Values",16 µg/mL
same,MIC,"MRSA strains; MRSA, strain JSCC 651, read-out: MIC Values",64 µg/mL
same,MIC,"MRSA strains; MRSA, strain JSCC 663, read-out: MIC Values",16 µg/mL
same,MIC,"MRSA strains; MRSA, strain JSCC 681, read-out: MIC Values",16 µg/mL
same,MIC,"MRSA strains; MRSA, strain JSCC 690, read-out: MIC Values",16 µg/mL
same,MIC,"MRSA strains; MRSA, strain JSCC 701, read-out: MIC Values",32 µg/mL
same,MIC,"MRSA strains; MRSA, strain JSCC 713, read-out: MIC Values",16 µg/mL
same,MIC,"MRSA strains; MRSA, strain JSCC 731, read-out: MIC Values",32 µg/mL
same,MIC,"MRSA strains; MRSA, strain JSCC 740, read-out: MIC Values",16 µg/mL
same,MIC,"MRSA strains; MRSA, strain JSCC 751, read-out: MIC Values",64 µg/mL
same,MIC,"MRSA strains; MRSA, strain JSCC 763, read-out: MIC Values",8 µg/mL
same,MIC,"MRSA strains; MRSA, strain JSCC 781, read-out: MIC Values",16 µg/mL
same,MIC,"MRSA strains; MRSA, strain JSCC 870, read-out: MIC Values",32 µg/mL
same,MIC,"MRSA strains; MRSA, strain LIM 2, read-out: MIC Values",32 µg/mL
same,MIC,"MRSA strains; MRSA, strain Mu 3, read-out: MIC Values",32 µg/mL
same,MIC,"MRSA strains; MRSA, strain Mu 50, read-out: MIC Values",32 µg/mL
same,MIC,"MRSA strains; MRSA, strain N315, read-out: MIC Values",8 µg/mL
same,MIC,VRSA strains; read-out: MICs 50%,32 µg/mL
same,MIC,VRSA strains; read-out: MICs 90%,64 µg/mL
same,MICs Range,VRSA strains,16 to 64 mg/L
"CN[C@H](CC(C)C)C(=O)N[C@H]1C(=O)N[C@@H](CC(N)=O)C(=O)N[C@H]2C(=O)N[C@H]3C(=O)N[C@H](C(=O)N[C@H](C(=O)O)c4cc(O)cc(O)c4-c4cc3ccc4O)[C@H](O)c3ccc(c(Cl)c3)Oc3cc2cc(c3O[C@@H]2O[C@H](CO)[C@@H](O)[C@H](O)[C@H]2O[C@H]2C[C@](C)(N)[C@H](O)[C@H](C)O2)Oc2ccc(cc2Cl)[C@H]1O [VCM, vancomycin]",MIC,"Staph. aureus 29213; ATCC29213, read-out: MIC Values, strain ATCC 29213, control sample (Ex. 26)",1 µg/mL
same,MIC,"Staph. aureus 29213; ATCC29213, read-out: MIC Values, strain ATCC29213, control sample (Ex. 37)",0.5 µg/mL
same,MICs Range,MRSA strains; MRSA strains (n = 38),0.5 to 2 mg/L
same,MIC,"MRSA strains; MRSA / NCTC 10442, read-out: MIC Values, strain NCTC 10442",1 µg/mL
same,MIC,"MRSA strains; MRSA, read-out: MIC Values, strain 85/2082",1 µg/mL
same,MIC,"MRSA strains; MRSA, read-out: MIC Values, strain 99.3700W",2 µg/mL
same,MIC,"MRSA strains; MRSA, read-out: MIC Values, strain 99.3759V",2 µg/mL
same,MIC,"MRSA strains; MRSA, read-out: MIC Values, strain AMC 11094",4 µg/mL
same,MIC,"MRSA strains; MRSA, read-out: MIC Values, strain BM12612(new)",2 µg/mL
same,MIC,"MRSA strains; MRSA, read-out: MIC Values, strain H1",0.5 µg/mL
same,MIC,"MRSA strains; MRSA, read-out: MIC Values, strain HIP 5827",4 µg/mL
same,MIC,"MRSA strains; MRSA, read-out: MIC Values, strain HIP 5836",4 µg/mL
same,MIC,"MRSA strains; MRSA, read-out: MIC Values, strain HIP 6297",2 µg/mL
same,MIC,"MRSA strains; MRSA, read-out: MIC Values, strain HIP 7737",4 µg/mL
same,MIC,"MRSA strains; MRSA, read-out: MIC Values, strain JSCC 340",1 µg/mL
same,MIC,"MRSA strains; MRSA, read-out: MIC Values, strain JSCC 351",1 µg/mL
same,MIC,"MRSA strains; MRSA, read-out: MIC Values, strain JSCC 363",1 µg/mL
same,MIC,"MRSA strains; MRSA, read-out: MIC Values, strain JSCC 381",1 µg/mL
same,MIC,"MRSA strains; MRSA, read-out: MIC Values, strain JSCC 390",1 µg/mL
same,MIC,"MRSA strains; MRSA, read-out: MIC Values, strain JSCC 401",1 µg/mL
same,MIC,"MRSA strains; MRSA, read-out: MIC Values, strain JSCC 413",1 µg/mL
same,MIC,"MRSA strains; MRSA, read-out: MIC Values, strain JSCC 431",0.5 µg/mL
same,MIC,"MRSA strains; MRSA, read-out: MIC Values, strain JSCC 440",1 µg/mL
same,MIC,"MRSA strains; MRSA, read-out: MIC Values, strain JSCC 451",1 µg/mL
same,MIC,"MRSA strains; MRSA, read-out: MIC Values, strain JSCC 463",1 µg/mL
same,MIC,"MRSA strains; MRSA, read-out: MIC Values, strain JSCC 481",1 µg/mL
same,MIC,"MRSA strains; MRSA, read-out: MIC Values, strain JSCC 490",1 µg/mL
same,MIC,"MRSA strains; MRSA, read-out: MIC Values, strain JSCC 501",1 µg/mL
same,MIC,"MRSA strains; MRSA, read-out: MIC Values, strain JSCC 513",1 µg/mL
same,MIC,"MRSA strains; MRSA, read-out: MIC Values, strain JSCC 531",1 µg/mL
same,MIC,"MRSA strains; MRSA, read-out: MIC Values, strain JSCC 540",1 µg/mL
same,MIC,"MRSA strains; MRSA, read-out: MIC Values, strain JSCC 551",0.5 µg/mL
same,MIC,"MRSA strains; MRSA, read-out: MIC Values, strain JSCC 563",1 µg/mL
same,MIC,"MRSA strains; MRSA, read-out: MIC Values, strain JSCC 581 (lacks the mecA gene)",1 µg/mL
same,MIC,"MRSA strains; MRSA, read-out: MIC Values, strain JSCC 590 (lacks the mecA gene)",1 µg/mL
same,MIC,"MRSA strains; MRSA, read-out: MIC Values, strain JSCC 601",0.5 µg/mL
same,MIC,"MRSA strains; MRSA, read-out: MIC Values, strain JSCC 640",1 µg/mL
same,MIC,"MRSA strains; MRSA, read-out: MIC Values, strain JSCC 651",1 µg/mL
same,MIC,"MRSA strains; MRSA, read-out: MIC Values, strain JSCC 663",1 µg/mL
same,MIC,"MRSA strains; MRSA, read-out: MIC Values, strain JSCC 681",1 µg/mL
same,MIC,"MRSA strains; MRSA, read-out: MIC Values, strain JSCC 690",1 µg/mL
same,MIC,"MRSA strains; MRSA, read-out: MIC Values, strain JSCC 701",1 µg/mL
same,MIC,"MRSA strains; MRSA, read-out: MIC Values, strain JSCC 713",2 µg/mL
same,MIC,"MRSA strains; MRSA, read-out: MIC Values, strain JSCC 731",0.5 µg/mL
same,MIC,"MRSA strains; MRSA, read-out: MIC Values, strain JSCC 740",0.5 µg/mL
same,MIC,"MRSA strains; MRSA, read-out: MIC Values, strain JSCC 751",0.5 µg/mL
same,MIC,"MRSA strains; MRSA, read-out: MIC Values, strain JSCC 763",0.5 µg/mL
same,MIC,"MRSA strains; MRSA, read-out: MIC Values, strain JSCC 781",2 µg/mL
same,MIC,"MRSA strains; MRSA, read-out: MIC Values, strain JSCC 870",1 µg/mL
same,MIC,"MRSA strains; MRSA, read-out: MIC Values, strain LIM 2",2 µg/mL
same,MIC,"MRSA strains; MRSA, read-out: MIC Values, strain Mu 3",1 µg/mL
same,MIC,"MRSA strains; MRSA, read-out: MIC Values, strain Mu 50",4 µg/mL
same,MIC,"MRSA strains; MRSA, read-out: MIC Values, strain N315",0.5 µg/mL
same,MICs Range,VRSA strains,2 to 4 mg/L
